# pIC50: −log10 of the molar value.
# Biological target: human BACE1 (Homo sapiens, UniProt P56817)
# Assay: Fluorescent kinetic assay, human BACE1 (FRET peptide substrate WABC-6);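 also: fluorescence monitored at excitation 320 nm and emission 420 nm over 30 min, with the substrate cleavage rate taken as the linear slope of the signal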
# Format: biochemical
# Settings: not given
# human BACE1, sequence (P56817 46-501): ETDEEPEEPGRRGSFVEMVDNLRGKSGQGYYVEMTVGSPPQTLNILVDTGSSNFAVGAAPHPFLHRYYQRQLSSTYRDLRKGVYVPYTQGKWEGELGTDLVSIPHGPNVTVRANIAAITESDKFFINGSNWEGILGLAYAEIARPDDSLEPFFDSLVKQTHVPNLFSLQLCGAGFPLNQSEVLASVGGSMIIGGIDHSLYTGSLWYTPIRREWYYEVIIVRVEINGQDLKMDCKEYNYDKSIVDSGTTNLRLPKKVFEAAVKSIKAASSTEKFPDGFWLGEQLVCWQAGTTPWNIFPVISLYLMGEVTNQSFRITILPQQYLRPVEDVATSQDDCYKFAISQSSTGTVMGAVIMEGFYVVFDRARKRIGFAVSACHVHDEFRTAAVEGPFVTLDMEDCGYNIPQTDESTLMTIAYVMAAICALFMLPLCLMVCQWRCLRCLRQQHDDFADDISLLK
row,pIC50,Molecule
1,6.00 to 6.96,N/C(=N/C(=O)Cn1c(-c2ccccc2)ccc1C12CC3CC(CC(C3)C1)C2)NCCCO [Example 395]
2,6.00 to 6.96,N=C(NCc1cccc(N)c1)NC(=O)Cn1c(-c2ccccc2)ccc1C12CC3CC(CC(C3)C1)C2 [Example 421]

# Same assay, conditions: fluorescent kinetic assay, 25 μM substrate WABC-6, pH 4.5, room temperature; read-out: IC50 (μM) BACE 1
row,Molecule,IC50 [µM]
1,NC(N)=NC(=O)Cn1c(-c2ccccc2)ccc1-c1ccc(C(=O)N2CCSC2)cc1 [Example 169],1.1 to 5
2,CCCCc1ccc(-c2ccc(-c3ccccc3)n2CC(=O)N=C(N)NCCCO)cc1 [Example 321],0.11 to 1
3,CCCCCOc1ccc(-c2ccc(-c3ccccc3Cl)n2CC(=O)/N=C(/N)NCCCO)cc1 [Example 317],0.11 to 1
4,N#CCCCCOc1ccc(-c2ccc(-c3ccccc3Cl)n2CC(=O)N=C(N)NCCCO)cc1 [Example 314],0.01 to 0.1
5,COCCNC(N)=NC(=O)Cn1c(-c2ccccc2)ccc1C12CC3CC(CC(C3)C1)C2 [Example 415],0.11 to 1
6,CCC(C)NC(=O)c1ccc(-c2ccc(-c3ccccc3)n2CC(=O)N=C(N)NCCCO)cc1 (stereo not shown) [Example 469],0.11 to 1
7,CCCCCN/C(N)=N\C(=O)Cn1c(-c2ccccc2)ccc1C12CC3CC(CC(C3)C1)C2 [Example 392],1.1 to 5
8,N#Cc1ccc(-c2ccc(-c3ccccc3)n2CC(=O)N=C(N)NCCCO)cc1 [Example 318],1.1 to 5
9,NC(=NC(=O)Cn1c(-c2ccc(Oc3ccccc3)cc2)ccc1-c1ccccc1Cl)NCCCO [Example 310],0.11 to 1
10,Cc1cccc(C(=O)Nc2ccc(-c3ccc(-c4ccccc4)n3CC(=O)N=C(N)N)cc2)c1 [Example 236],1.1 to 5
11,C=CCNC(=O)c1ccc(-c2ccc(-c3ccccc3)n2CC(=O)N=C(N)NCCCO)cc1 [Example 463],0.11 to 1
12,"CCC[C@H]1CC[C@H](c2ccc(-c3ccccc3)n2CC(=O)/N=C(\N)NCCCC#N)CC1 [Example 473, N-{(1E)-amino[(3-cyanopropyl)amino]methylene}-2-[2-phenyl-5-(trans-4-propylcyclohexyl)-1H-pyrrol-1-yl]acetamide]",1.1 to 5
13,NC(N)=NC(=O)Cn1c(-c2ccccc2)ccc1-c1ccc(NS(=O)(=O)c2ccc(Cl)s2)cc1 [Example 258],1.1 to 5
14,CCCCc1ccc(-c2ccc(-c3ccccc3)n2CC(=O)N=C(N)NCc2ccc(F)c(F)c2F)cc1 [Example 333],0.11 to 1
15,C=CCNC(=O)c1ccc(-c2ccc(-c3ccccc3)n2CC(=O)N=C(N)NCCc2cccs2)cc1 [Example 425],0.11 to 1
16,N#CCc1ccc(-c2ccc(-c3ccccc3)n2CC(=O)NC(=N)N)cc1 [Example 451],1.1 to 5
17,NC(=NC(=O)Cn1c(-c2ccccc2)ccc1C12CC3CC(CC(C3)C1)C2)NC1CCCCCC1 [Example 417],0.11 to 1
18,"N/C(=N/C(=O)Cn1c(-c2ccccc2)ccc1C12CC3CC(CC(C3)C1)C2)NCCO [Example 396, 2-[2-(1-adamantyl)-5-phenyl-1H-pyrrol-1-yl]-N-{(1E)-amino[(2-hydroxyethyl)-amino]methylene}acetamide]",0.11 to 1
19,"N/C(=N\C(=O)Cn1c(-c2ccccc2)ccc1C12CC3CC(CC(C3)C1)C2)NCCCCO [Example 400, 2-[2-(1-Adamantyl)-5-phenyl-1H-pyrrol-1-yl]-N-{(1E)-amino[(4-hydroxybutyl)amino]-methylene}acetamide]",0.11 to 1
20,CC(C)CNC(N)=NC(=O)Cn1c(-c2ccccc2)ccc1C12CC3CC(CC(C3)C1)C2 [Example 407],1.1 to 5
21,C=CCN(C)C(=O)c1ccc(-c2ccc(-c3ccccc3)n2CC(=O)N=C(N)NCCCO)cc1 [Example 470],0.11 to 1
22,COCCNC(=O)c1ccc(-c2ccc(-c3ccccc3)n2CC(=O)N=C(N)NCCCO)cc1 [Example 468],0.11 to 1
23,CC(C)c1ccc(-c2ccc(-c3ccccc3)n2CC(=O)N=C(N)NCc2ccc(F)c(F)c2F)cc1 [Example 331],1.1 to 5
24,N#CCCN/C(N)=N\C(=O)Cn1c(-c2ccccc2)ccc1C12CC3CC(CC(C3)C1)C2 [Example 397],0.11 to 1

row,Molecule,IC50 [µM]
1,C=CCNC(=O)c1ccc(-c2ccc(-c3ccccc3)n2CC(=O)N=C(N)NCc2nc(C)cs2)cc1 [Example 424],0.11 to 1
2,COc1ccc(OC)c(-c2ccc(-c3ccc(Oc4ccccc4)cc3)n2CC(=O)N=C(N)N)c1 [Example 133],1.1 to 5
3,CC(O)CNC(N)=NC(=O)Cn1c(-c2ccccc2)ccc1C12CC3CC(CC(C3)C1)C2 (stereo not shown) [Example 405],0.11 to 1
4,C=CCNC(=O)c1ccc(-c2ccc(-c3ccccc3)n2CC(=O)N=C(N)NCc2cccc(N)c2)cc1 [Example 426],0.11 to 1
5,CCC(=O)c1ccc(-c2ccc(-c3ccccc3)n2CC(=O)NC(=N)N)cc1 [Example 447],1.1 to 5
6,NC(=NC(=O)Cn1c(-c2ccccc2)ccc1C12CC3CC(CC(C3)C1)C2)NCC(F)(F)F [Example 408],0.11 to 1
7,N=C(N)NC(=O)Cn1c(-c2ccccc2)ccc1-c1ccccc1C(F)(F)F [Example 452],1.1 to 5
8,NC(=NC(=O)Cn1c(-c2ccccc2)ccc1-c1ccc(Oc2ccccc2)cc1)NCc1ccc(F)c(F)c1F [Example 337],0.11 to 1
9,COc1ccc(OC)c(-c2ccc(-c3ccc(Oc4ccc(C(C)=O)cc4)cc3)n2CC(=O)N=C(N)N)c1 [Example 135],0.11 to 1
10,C=CCCOc1ccc(-c2ccc(-c3ccccc3)n2CC(=O)N=C(N)N)cc1 [Example 273],1.1 to 5
11,CC(C)Cc1ccc(-c2ccc(-c3ccccc3)n2CC(=O)N=C(N)NCCCO)cc1 [Example 322],0.11 to 1
12,CCOC(=O)CCCNC(N)=NC(=O)Cn1c(-c2ccccc2)ccc1C12CC3CC(CC(C3)C1)C2 [Example 409],1.1 to 5
13,Cc1ccc(C)c(-c2ccc(-c3ccccc3)n2CC(=O)NC(=N)N)c1 [Example 450],0.11 to 1
14,NC(=NC(=O)Cn1c(-c2ccccc2)ccc1-c1ccc(C2CCCCC2)cc1)NCCCO [Example 327],0.11 to 1
15,NC(=NC(=O)Cn1c(-c2ccccc2)ccc1C12CC3CC(CC(C3)C1)C2)NCC(F)(F)C(F)(F)F [Example 416],0.11 to 1
16,N#Cc1ccc(-c2ccc(-c3ccccc3)n2CC(=O)N=C(N)NCc2ccc(F)c(F)c2F)cc1 [Example 330],1.1 to 5
17,CCCc1ccc(-c2ccc(-c3ccccc3)n2CC(=O)N=C(N)NCCCO)cc1 [Example 320],0.11 to 1
18,NC(=NC(=O)Cn1c(-c2ccccc2)ccc1C12CC3CC(CC(C3)C1)C2)NCC1CCCO1 (stereo not shown) [Example 402],0.11 to 1
19,COCCCNC(N)=NC(=O)Cn1c(-c2ccccc2)ccc1C12CC3CC(CC(C3)C1)C2 [Example 414],0.11 to 1
20,CCCN/C(N)=N\C(=O)Cn1c(-c2ccccc2)ccc1C12CC3CC(CC(C3)C1)C2 [Example 391],0.11 to 1
21,CC(O)CNC(N)=NC(=O)Cn1c(-c2ccccc2)ccc1C12CC3CC(CC(C3)C1)C2 (stereo not shown) [Example 404],0.11 to 1
22,COc1cccc(-c2ccc(-c3ccc4ccccc4c3)n2CC(=O)N=C(N)N)c1 [Example 147],1.1 to 5
23,NC(=NC(=O)Cn1c(-c2ccccc2)ccc1-c1ccc(C(=O)NCCO)cc1)NCCCO [Example 464],0.11 to 1
24,4-n-propyl-piperidine [Example 185],1.1 to 5

# Next, values leading:
row,IC50 [µM],Molecule
1,0.11 to 1,CC(C)c1ccc(-c2ccc(-c3ccccc3)n2CC(=O)N=C(N)NCCCO)cc1 [Example 319]
2,0.11 to 1,NC(=NC(=O)Cn1c(-c2ccccc2)ccc1-c1ccc(C(=O)NC2CC2)cc1)NCCCO [Example 462]
3,0.11 to 1,C=CCCCCOc1ccc(-c2ccc(-c3ccccc3Cl)n2CC(=O)N=C(N)NCCCO)cc1 [Example 315]
4,0.11 to 1,CCCCOc1ccc(-c2ccc(-c3ccccc3)n2CC(=O)N=C(N)NCc2ccc(F)c(F)c2F)cc1 [Example 334]
5,0.11 to 1,N/C(=N/C(=O)Cn1c(-c2ccc(OCCC3OCCO3)cc2)ccc1-c1ccccc1Cl)NCCCO [Example 316]
6,1.1 to 5,NC(=NC(=O)Cn1c(-c2ccccc2)ccc1C12CC3CC(CC(C3)C1)C2)NCc1ccco1 [Example 401]
7,0.11 to 1,CCCc1ccc(-c2ccc(-c3ccccc3)n2CC(=O)N=C(N)NCc2ccc(F)c(F)c2F)cc1 [Example 332]
8,0.11 to 1,CC(=O)c1ccc(Oc2ccc(-c3ccc(-c4ccccc4)n3CC(=O)N=C(N)NCCCO)cc2)cc1 [Example 329]
9,1.1 to 5,NC(=NC(=O)Cn1c(-c2ccccc2)ccc1-c1ccc(C(=O)NCC(F)(F)C(F)(F)F)cc1)NCCCO [Example 472]
10,0.11 to 1,C=CCNC(=O)c1ccc(-c2ccc(-c3ccccc3)n2CC(=O)N=C(N)NCc2nnc(C)o2)cc1 [Example 423]
11,0.11 to 1,CCN/C(N)=N\C(=O)Cn1c(-c2ccccc2)ccc1C12CC3CC(CC(C3)C1)C2 [Example 390]
12,1.1 to 5,CC1CCN(C(=O)c2ccc(-c3ccc(-c4ccccc4)n3CC(=O)N=C(N)N)cc2)CC1 [Example 170]
13,0.11 to 1,CCCCCc1ccc(-c2ccc(-c3ccccc3)n2CC(=O)N=C(N)NCCCO)cc1 [Example 323]
14,1.1 to 5,NC(N)=NC(=O)Cn1c(-c2ccccc2)ccc1-c1ccc(NC(=O)COc2ccccc2)cc1 [Example 242]
15,0.11 to 1,NC(=NC(=O)Cn1c(-c2ccccc2)ccc1-c1ccc(Oc2ccccc2)cc1)NCCCO [Example 328]
16,1.1 to 5,N=C(NCCCn1ccnc1)NC(=O)Cn1c(-c2ccccc2)ccc1C12CC3CC(CC(C3)C1)C2 [Example 413]
17,0.11 to 1,CCCNC(=O)c1ccc(-c2ccc(-c3ccccc3)n2CC(=O)N=C(N)NCCCO)cc1 [Example 467]
18,0.11 to 1,NC(=NC(=O)Cn1c(-c2ccccc2)ccc1-c1ccc(C2CCCCC2)cc1)NCc1ccc(F)c(F)c1F [Example 336]
19,0.11 to 1,N#CCCCNC(=N)NC(=O)Cn1c(-c2ccccc2)ccc1C12CC3CC(CC(C3)C1)C2 [Example 393]
20,1.1 to 5,N#CCc1cccc(-c2ccc(-c3ccccc3)n2CC(=O)NC(=N)N)c1 [Example 453]
21,1.1 to 5,CC[C@H](C)COc1ccc(-c2ccc(-c3ccccc3)n2CC(=O)N=C(N)N)cc1 [Example 283]
22,1.1 to 5,CC(=O)c1ccc(Oc2ccc(-c3ccc(-c4ccccc4)n3CC(=O)N=C(N)NCc3ccc(F)c(F)c3F)cc2)cc1 [Example 338]
23,1.1 to 5,Cc1ccc(-c2ccc(-c3ccc(Cl)s3)n2CC(=O)N=C(N)N)cc1 [Example 110]

# Reference: patent US7488832B2, “Azolylacylguanidines as β-secretase inhibitors” (Wyeth, priority 2005, dated 2009)
